# In patent US8088814B2, “Methods and compositions for the treatment of psychiatric disorders” (priority 2001, dated 2012):
# Read-outs that look alike come from different tables or passages of the source.
# How the values were obtained:
# schizophrenic patients = tested on: schizophrenic patients
# Method: The statistics were performed according to the criterion of “last observation carried forward” (LOCF), i.e., the last PANSS scores of the patients who dropped out before the end of the study were carried forward to all subsequent observation days. For the comparison of the main efficacy parameter, the mean change in the PANSS between the two treatment groups, t-tests for independent samples were employed. […] For all other comparisons, two-tailed t-tests were used.
molecule,measurement,setting,value
Cc1ccc(-c2cc(C(F)(F)F)nn2-c2ccc(S(N)(=O)=O)cc2)cc1 [celecoxib],treatment of depressive states,schizophrenic patients; add-on celecoxib therapy in schizophrenic patients,useful
same,"PANSS items lack of contact, emotional isolation, passive-apathic isolation, social withdrawal, depression, motor retardation","schizophrenic patients; detailed item analysis, good celecoxib-responders vs placebo group, add-on to risperidone",therapeutic effects
same,factor analysis: items subsumed under the label agitation,"schizophrenic patients; response to celecoxib but not to placebo, add-on to risperidone",good therapeutic response
risperidone [placebo and risperidone],PANSS global score,schizophrenic patients; at the start of the study,37.2±7.1
same,PANSS negative score,schizophrenic patients; at the start of the study,21.1±5.5
same,PANSS total score,schizophrenic patients; at the start of the study,75.4±12.9
same,PANSS positive score,"schizophrenic patients; week 0 (start of the study), mean ± SD, 25 patients per group",17.2 ± 4.6
same,PANSS positive score,"schizophrenic patients; week 0 (start of the study), mean ± SD, 25 patients per group, listed as risperidone-placebo",17.2±4.6
same,PANSS positive score,"schizophrenic patients; week 1, LOCF",16.2 ± 4.6
same,PANSS positive score,"schizophrenic patients; week 2, LOCF",15 ± 4.5
same,PANSS positive score,"schizophrenic patients; week 3, LOCF",14.5 ± 4.6
same,PANSS positive score,"schizophrenic patients; week 4, LOCF",14.2 ± 4.4
same,PANSS positive score,"schizophrenic patients; week 5, LOCF",13.3 ± 4.4
same,differences in the plasma levels between risperidone-celecoxib and risperidone-placebo treatment,"plasma, during the study (FIG. 4)",without statistical significance
Cc1nc2n(c(=O)c1CCN1CCC(c3noc4cc(F)ccc34)CC1)CCCC2O (stereo not drawn) [9-OH-risperidone],differences in the plasma levels between risperidone-celecoxib and risperidone-placebo treatment,"human, in vivo",without statistical significance
